Earlier results as cited in patent US8137734B2, “Preparation of controlled release skeletal muscle relaxant dosage forms” (Aptalis Pharmatech, Inc., priority 2008, dated 2012).

CN(C)CCC=C1c2ccccc2C=Cc2ccccc21 [Cyclobenzaprine]
absorption (after oral administration): well absorbed | half-life (elimination): one to three
